# Results reported in patent publication US4416885A, “Use of isopropylaminopyrimidine in the chemotherapy of muscular dystrophy, myopathy and myotonia” (priority 1982, dated 1983).
# What was measured:
# [1] = test system: normal 412 muscle explants; assay: Microtubule complexes in muscle explants of injected normal chickens; type: in vivo, chicken
# Excerpt: Essentially, these experiments were divided into three subgroups, taken from the previous Table:
# 413A, 413B, 412A, 412B: All were sacrificed after 4 injections and muscle explants placed in culture.
# 413C, 412C: All were sacrificed after 8 injections and muscle explants were placed in culture.
# 413D, 412D: All were sacrificed after 10 injections and muscle explants placed in culture.
# All explants were placed in CMRL culture medium containing 5% horse serum, 15% fetal bovine serum and 1% antibiotics and allowed to grow for 5-7 days before being fixed and observed for the presence or absence of microtubules. No IAPP was added to the culture medium during the 5-7 days in culture.
# Dystrophic monocytes = assay: Effect on human monocytes in culture (flat cells), dystrophic; type: cell-based; conditions: dystrophic monocytes + IAPP, six individuals, cultured 5-7 days; without IAPP 36.2%; preliminary
# Carrier monocytes = assay: Effect on human monocytes in culture (flat cells), carrier; type: cell-based; conditions: carrier monocytes + IAPP, six individuals, cultured 5-7 days; without IAPP 35.3%; preliminary
# Excerpt: In the experiments adding IAPP to such cultures, the preliminary results were as follows: […]
# [2] = test system: dystrophic New Hampshire chickens, line 413; assay: Wing apposition (WA) measurements; type: in vivo, chicken
# Protocol: The compound IAPP was tested on dystrophic New Hampshire chickens, line 413, and Imperial College (London, England) sub-line of the original Davis, University of California strain. The chickens are homozygous for muscular dystrophy, the disease appearing with 100% incidence.
# This can be defined as the minimum separation in cm to which the two wing tips can be passively raised, providing a measure of the characteristic loss is flexibility of the wing muscle-tendon system. The test is performed once weekly. In dystrophic birds, WA changes after the first three weeks of life from 0 cm (wings raised and touching) to about 18 cm at 3 months (wings stiff and can barely be raised). The normal controls maintain a score of 0 cm throughout. […]
# Finally, oral therapy with IAPP was undertaken at gradually increasing dosages up to 1 g/Kg/day. The parameters (physical, biochemical and histological) measured previously were again used to test the efficacy of the drug; five different dosages were used orally, each being given for 30-60 days, daily (Tables VII-XI). A total of 75 animals were treated in the current study with IAPP and 70 control animals were used.
# [3] = test system: dystrophic New Hampshire chickens, line 413; assay: Toxicity (weight change, other symptoms) in dystrophic chickens; type: in vivo, chicken
# Protocol: Weight measurements are taken weekly, weight loss, diarrhea or any other symptoms are noted. No drugs have yet been described for dystrophy with a beneficial effect without an accompanying weight loss.
# The drug was administered daily in water, injected intra-peritoneally, the amount being adjusted on a weekly basis according to the animal's weight.
# [4] = test system: plasma PK (pyruvate kinase); assay: Plasma PK; type: in vivo, chicken; conditions: 300 mg/Kg i.p. three times weekly for 30 days, day 28 ex ovo
smiles,measurement,setting,value
"CC(C)Nc1ncccn1.O=P(O)(O)O [IAPP, 2-isopropylaminopyrimidine orthophosphate]",% Full Complexes Microtubules,"[1]; 412B, Subgroup A, after 4 injections of 50 mg/Kg, 412A control 86%",73%
same,% Full Complexes Microtubules,"[1]; 412C, Subgroup B, after 8 injections of 50 mg/Kg",76%
same,% Full Complexes Microtubules,"[1]; 412D, Subgroup C, after 10 injections of 50 mg/Kg",80%
same,% Flat Cells,Dystrophic monocytes,45.1%
same,% Flat Cells,Carrier monocytes,50.0%
same,"WA, treated","[2]; 200 mg/Kg i.p. daily for 30 days, day 28 ex ovo, control 0.4",1.0 cm
same,"WA, treated","[2]; 200 mg/Kg i.p. daily for 30 days, day 45 ex ovo, control 0.6",1.5 cm
same,"WA, treated","[2]; 200 mg/Kg i.p. daily for 30 days, day 84 ex ovo, control 8.3",8.6 cm
same,"WA, treated","[2]; 300 mg/Kg i.p. daily for 30 days, day 28 ex ovo, control 0.4",0.3 cm
same,"WA, treated","[2]; 300 mg/Kg i.p. daily for 30 days, day 45 ex ovo, control 0.6",1.6 cm
same,"WA, treated","[2]; 300 mg/Kg i.p. daily for 30 days, day 84 ex ovo, control 9.3",14.4 cm
same,"WA, treated","[2]; 300 mg/Kg i.p. three times weekly for 30 days, day 28 ex ovo, control 0.4",0.3 cm
same,"WA, treated","[2]; 300 mg/Kg i.p. three times weekly for 30 days, day 45 ex ovo, control 0.6",2.0 cm
same,"WA, treated","[2]; 300 mg/Kg i.p. three times weekly for 30 days, day 84 ex ovo, control 8.3",11.1 cm
same,"WA, treated","[2]; Exp. 2, 40 mg/Kg i.p. daily, day 7-13, control 0",0 cm
same,"WA, treated","[2]; Exp. 2, 40 mg/Kg i.p. daily, day 14-20, control 0",0 cm
same,"WA, treated","[2]; Exp. 2, 40 mg/Kg i.p. daily, day 21-27, control 0",0 cm
same,"WA, treated","[2]; Exp. 2, 40 mg/Kg i.p. daily, day 28-34, control 0",0 cm
same,"WA, treated","[2]; Exp. 2, 40 mg/Kg i.p. daily, day 35-41, control 2.1",0 cm
same,"WA, treated","[2]; Exp. 2, 40 mg/Kg i.p. daily, day 42-48, control 4.7",2.3 cm
same,"WA, treated","[2]; Exp. 2, 40 mg/Kg i.p. daily, day 56-62, control 5.7",2.9 cm
same,"WA, treated","[2]; Exp. 2, 40 mg/Kg i.p. daily, day 63-71, control 7.5",6.1 cm
same,"WA, treated","[2]; Exp. 3, 70 mg/Kg i.p. daily, day 14-20, control 0",0 cm
same,"WA, treated","[2]; Exp. 3, 70 mg/Kg i.p. daily, day 21-27, control 0",0 cm
same,"WA, treated","[2]; Exp. 3, 70 mg/Kg i.p. daily, day 28-34, control 0",0 cm
same,"WA, treated","[2]; Table VII, oral 200 mg/Kg, 60 days, day 28 ex ovo, control 0.8",0.8 cm
same,"WA, treated","[2]; Table VII, oral 200 mg/Kg, 60 days, day 35 ex ovo, control 1.2",2.5 cm
same,"WA, treated","[2]; Table VII, oral 200 mg/Kg, 60 days, day 45 ex ovo, control 3.4",4.3 cm
same,"WA, treated","[2]; Table VII, oral 200 mg/Kg, 60 days, day 60 ex ovo, control 9.6",10.7 cm
same,"WA, treated","[2]; oral 300 mg/Kg daily, day 28 ex ovo, control 1.6",1.4 cm
same,"WA, treated","[2]; oral 300 mg/Kg daily, day 35 ex ovo, control 1.3",4.5 cm
same,"WA, treated","[2]; oral 450 mg/Kg daily for 45 days, day 28 ex ovo, control 0.2",0.7 cm
same,"WA, treated","[2]; oral 450 mg/Kg daily for 45 days, day 35 ex ovo, control 2.8",1.9 cm
same,"WA, treated","[2]; oral 450 mg/Kg daily for 45 days, day 45 ex ovo, control 5.5",5.8 cm
same,"WA, treated","[2]; oral 450 mg/Kg daily for 45 days, day 50 ex ovo, control 6.2",7.6 cm
same,"WA, treated","[2]; oral 600 mg/Kg daily, day 28 ex ovo, control 0.2",0.3 cm
same,"WA, treated","[2]; oral 600 mg/Kg daily, day 35 ex ovo, control 2.8",1.1 cm
same,"WA, treated","[2]; oral 600 mg/Kg daily, day 45 ex ovo, control 5.5",3.5 cm
same,"WA, treated","[2]; oral 600 mg/Kg daily, day 50 ex ovo, control 6.2",5.5 cm
same,Weight loss (after 30 days' treatment),"[3]; 200 mg/Kg i.p. daily, level at which it became significant",twenty
same,% Weight Change vs untreated dystrophic controls,"[3]; Exp. 2, 40 mg/Kg i.p. daily, day 7-13",-0.04%
same,% Weight Change vs untreated dystrophic controls,"[3]; Exp. 2, 40 mg/Kg i.p. daily, day 14-20",-0.07%
same,% Weight Change vs untreated dystrophic controls,"[3]; Exp. 2, 40 mg/Kg i.p. daily, day 21-27",-0.07%
same,% Weight Change vs untreated dystrophic controls,"[3]; Exp. 2, 40 mg/Kg i.p. daily, day 28-34",-0.15%
same,% Weight Change vs untreated dystrophic controls,"[3]; Exp. 2, 40 mg/Kg i.p. daily, day 35-41",-0.08%
same,% Weight Change vs untreated dystrophic controls,"[3]; Exp. 2, 40 mg/Kg i.p. daily, day 42-48",-0.04%
same,% Weight Change vs untreated dystrophic controls,"[3]; Exp. 2, 40 mg/Kg i.p. daily, day 49-55",-0.04%
same,% Weight Change vs untreated dystrophic controls,"[3]; Exp. 2, 40 mg/Kg i.p. daily, day 56-62",-0.05%
same,% Weight Change vs untreated dystrophic controls,"[3]; Exp. 2, 40 mg/Kg i.p. daily, day 63-71",-0.01%
same,Toxicity as evidenced by weight loss,"[3]; Exp. 3, 70 mg/Kg","detectable toxicity as evidenced by weight loss, but this is still moderate"
same,% Weight Change vs untreated dystrophic controls,"[3]; Exp. 3, 70 mg/Kg i.p. daily, day 7-13",0%
same,% Weight Change vs untreated dystrophic controls,"[3]; Exp. 3, 70 mg/Kg i.p. daily, day 14-20",-2%
same,% Weight Change vs untreated dystrophic controls,"[3]; Exp. 3, 70 mg/Kg i.p. daily, day 21-27",-3%
same,% Weight Change vs untreated dystrophic controls,"[3]; Exp. 3, 70 mg/Kg i.p. daily, day 28-34",-9%
same,Maximum Weight Loss,"[3]; Table VII, oral 200 mg/Kg, 60 days",3%
same,Weight loss / toxic symptoms,"[3]; initial single injection 100 mg/Kg, over 7 days","no weight loss over 7 days, nor any other toxic symptoms"
same,PK,[4],499
